Experimental data taken from ChEMBL document CHEMBL1133974, “Synthesis and in vitro evaluation of a series of diketopiperazine inhibitors of plasminogen activator inhibitor-1” (Bioorg Med Chem Lett, 2001).

What follows are molecules tested against T1, Plasminogen activator inhibitor 1 (Homo sapiens, UniProt P05121) (assay: Tissue plasminogen activator generation in plasmin was evaluated by measuring the ability to inhibit Plasminogen activator inhibitor-1 through fibrin plate assay).
T1 sequence (P05121 whole entry): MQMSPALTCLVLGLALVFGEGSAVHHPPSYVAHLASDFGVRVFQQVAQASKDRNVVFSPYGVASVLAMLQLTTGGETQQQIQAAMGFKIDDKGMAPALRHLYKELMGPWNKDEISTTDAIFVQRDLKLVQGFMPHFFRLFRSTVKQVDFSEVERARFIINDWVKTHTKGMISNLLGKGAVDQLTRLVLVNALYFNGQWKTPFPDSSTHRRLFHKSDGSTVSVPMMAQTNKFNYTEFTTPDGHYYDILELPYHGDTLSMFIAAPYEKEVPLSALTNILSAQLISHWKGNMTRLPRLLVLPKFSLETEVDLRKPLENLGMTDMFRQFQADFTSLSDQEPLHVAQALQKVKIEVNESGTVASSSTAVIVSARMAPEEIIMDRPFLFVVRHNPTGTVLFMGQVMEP
For `O=C(O)CCCCCCCOc1ccc(/C=c2\[nH]c(=O)/c(=C/c3ccc(NC(=O)c4cccs4)cc3)[nH]c2=O)cc1`, the IC50 was 0.26 µM.

These molecules were tested against T1, Plasminogen activator inhibitor 1 (assay: Tissue plasminogen activator generation in plasmin was evaluated by measuring the ability to inhibit Plasminogen activator inhibitor-1 through complex assay).
`O=C(O)CCCCCCCOc1ccc(/C=c2\[nH]c(=O)/c(=C/c3ccc(NC(=O)c4cccs4)cc3)[nH]c2=O)cc1` gave an IC50 of 0.51 µM.

The molecules below were run against T1, Plasminogen activator inhibitor 1 (assay: Inhibitory activity of compound against Plasminogen activator inhibitor-1).
`CN(C)CCSc1ccc(/C=c2\[nH]c(=O)/c(=C/c3ccc(NC(=O)c4ccccc4)cc3)[nH]c2=O)s1` was tested, and the IC50 was 6.1 µM.
`COC(=O)CCCCCCCOc1ccc(/C=c2\[nH]c(=O)/c(=C/c3ccc(NC(=O)c4cccs4)cc3)[nH]c2=O)cc1` gave an IC50 of 1.93 µM.
Work on `O=C(O)CCCCOc1ccc(/C=c2\[nH]c(=O)/c(=C/c3ccc(NC(=O)c4cccs4)cc3)[nH]c2=O)cc1` yielded an IC50 of 1.75 µM.
With `O=C(O)c1ccc(/C=c2\[nH]c(=O)/c(=C/c3ccccc3)[nH]c2=O)cc1` the IC50 was > 25 µM.
`Cc1ccc(/C=c2\[nH]c(=O)/c(=C/c3ccc(SCCN(C)C)s3)[nH]c2=O)cc1` showed an IC50 of 12.4 µM.
In the case of `CN(C)CCSc1ccc(/C=c2\[nH]c(=O)/c(=C/c3ccc(N(C)C)cc3)[nH]c2=O)s1`, the IC50 is reported as > 25 µM.
For `CCN(CC)CCSc1ccc(/C=c2\[nH]c(=O)/c(=C/c3ccccc3)[nH]c2=O)s1`, the IC50 was > 25 µM.
In the case of `CN(C)CCSc1ccc(/C=c2\[nH]c(=O)/c(=C/c3ccccc3)[nH]c2=O)s1`, the IC50 is reported as 3.5 µM.
For `O=C(O)CCCOc1ccc(/C=c2\[nH]c(=O)/c(=C/c3ccccc3)[nH]c2=O)cc1`, the IC50 was 20 µM.
`COc1ccc(/C=c2\[nH]c(=O)/c(=C/c3ccc(SCCN(C)C)s3)[nH]c2=O)cc1` was tested, and the IC50 was 10.9 µM.
With `O=C(O)COc1ccc(/C=c2\[nH]c(=O)/c(=C/c3ccccc3)[nH]c2=O)cc1` the IC50 was > 25 µM.
With `O=C(O)CCCCCCC(=O)Nc1ccc(/C=c2\[nH]c(=O)/c(=C/c3ccc(NC(=O)c4cccs4)cc3)[nH]c2=O)cc1` the IC50 was 0.52 µM.
`CN(C)CCSc1ccc(/C=c2\[nH]c(=O)/c(=C/c3ccc(Br)cc3)[nH]c2=O)s1` showed an IC50 of 13.1 µM.
For `O=C(O)CCCCCCCCC(=O)Nc1ccc(/C=c2\[nH]c(=O)/c(=C/c3ccc(NC(=O)c4cccs4)cc3)[nH]c2=O)cc1`, the IC50 was 0.39 µM.
With `CN(C)CC[S+]([O-])c1ccc(/C=c2\[nH]c(=O)/c(=C/c3ccccc3)[nH]c2=O)s1` (stereo unspecified) the IC50 was > 25 µM.
`CN(C)CCSc1ccc(/C=c2\[nH]c(=O)/c(=C/c3ccc(C#N)cc3)[nH]c2=O)s1` was tested, and the IC50 was > 25 µM.
With `CN(C)CCSc1ccc(/C=c2\[nH]c(=O)/c(=C/c3ccccc3Br)[nH]c2=O)s1` the IC50 was > 25 µM.
`CN(C)CCSc1ccc(/C=c2\[nH]c(=O)/c(=C/c3cccc(Cl)c3)[nH]c2=O)s1` was tested, and the IC50 was > 25 µM.
For `O=C(O)CCCCOc1ccc(/C=c2\[nH]c(=O)/c(=C/c3ccccc3)[nH]c2=O)cc1`, the IC50 was 15 µM.
`O=C(O)CCCCCCCOc1ccc(/C=c2\[nH]c(=O)/c(=C/c3ccc(NC(=O)c4cccs4)cc3)[nH]c2=O)cc1` gave an IC50 of 0.2 µM.
With `CN(C)CCOc1ccc(/C=c2\[nH]c(=O)/c(=C/c3ccccc3)[nH]c2=O)s1` the IC50 was > 25 µM.
`CN(C)CCSc1ccc(/C=c2\[nH]c(=O)/c(=C/c3ccc(NC(=O)c4cccs4)cc3)[nH]c2=O)s1` was tested, and the IC50 was 3.1 µM.
In the case of `COC(=O)c1ccc(/C=c2\[nH]c(=O)/c(=C/c3ccc(SCCN(C)C)s3)[nH]c2=O)cc1`, the IC50 is reported as 17.7 µM.
`COC(=O)CCCCCCC(=O)Nc1ccc(/C=c2\[nH]c(=O)/c(=C/c3ccc(NC(=O)c4cccs4)cc3)[nH]c2=O)cc1` showed an IC50 of 4.77 µM.
